Experimental data from article PMC10856265, “Penisimplicins A and B: Novel Polyketide–Peptide Hybrid Alkaloids from the Fungus Penicillium simplicissimum JXCC5” (Molecules, 2024).

How the values were obtained:
[1] = biological target: acetylcholinesterase; conditions: cited from earlier work; for IC50: read-out: anti-acetylcholinesterase activity IC50
[2] = biological target: T1, Acetylcholinesterase (AChE) (Homo sapiens, UniProt P22303); assay: biochemical; conditions: Ellman method, pH 8.0, 37 °C, absorbance at 405 nm; read-out: acetylcholinesterase inhibitory activity IC50
T1 construct: purchased Sigma-Aldrich
T1 sequence (P22303 32-614, species assumed): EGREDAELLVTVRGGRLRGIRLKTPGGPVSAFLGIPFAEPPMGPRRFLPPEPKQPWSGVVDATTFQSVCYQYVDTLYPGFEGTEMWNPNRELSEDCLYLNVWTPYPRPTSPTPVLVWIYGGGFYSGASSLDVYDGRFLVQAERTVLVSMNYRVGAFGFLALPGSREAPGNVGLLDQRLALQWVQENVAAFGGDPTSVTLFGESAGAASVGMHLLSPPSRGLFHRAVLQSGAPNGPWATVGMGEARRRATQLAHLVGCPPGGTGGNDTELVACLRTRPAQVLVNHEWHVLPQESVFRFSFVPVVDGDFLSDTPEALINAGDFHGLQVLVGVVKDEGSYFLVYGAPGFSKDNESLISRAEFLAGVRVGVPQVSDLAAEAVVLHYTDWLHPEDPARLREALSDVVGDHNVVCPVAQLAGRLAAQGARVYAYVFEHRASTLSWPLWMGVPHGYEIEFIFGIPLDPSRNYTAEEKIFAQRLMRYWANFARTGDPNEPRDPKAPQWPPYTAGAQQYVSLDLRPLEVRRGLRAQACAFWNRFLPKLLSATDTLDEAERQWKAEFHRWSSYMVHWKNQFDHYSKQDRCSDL
Method: Acetylcholinesterase (AChE, Sigma-Aldrich, Saint Louis, MO, USA, 0.1 U/mL), acetylthiocholine iodide, dithiobisnitrobenzoic acid (DTNB), and tacrine were bought from Sigma-Aldrich.
The AChE inhibitory activity was evaluated based on the protocol developed by Ellman et al. [33]. The enzymatic reactions were conducted in 96-well microplates. The following were added to each well: 110 μL phosphate buffer (pH 8.0), 40 μL AChE, and the tested compounds (dissolved in 10 μL DMSO). The microplates were then incubated in 37 °C for 20 min. […] Then, the absorbance at 405 nm was detected after 1 h. Seven different concentrations and three replications per concentration for each compound were tested.

[3] = tested on: murine monocytic RAW264.7 macrophage cells; assay: Anti-inflammatory assay: NO production by the Griess method; format: cell-based; conditions: LPS (0.5 µg/mL)-stimulated RAW264.7 cells, NO content
Method: The content of NO was determined by the Griess method. Briefly, the murine monocytic RAW264.7 macrophage cells in logarithmic growth phase were diluted to 1 × 10^5 cells/mL. Then, 100 µL of cell dilution was seeded into the 96-well plates and incubated overnight at 37 °C in a humid atmosphere with 5% CO2 for 24 h. The test compound and lipopolysaccharides (LPS) (Sigma) (0.5 µg/mL) were then added to each well and incubated for another 18 h. Then, 50 µL of cells culture supernatant was taken, 50 µL of the Griess reagent (reagent A and reagent B, Sigma) was added in triplicate, and NO production was evaluated in each well. After 5 min of incubation, the absorbances of samples were measured at 570 nm with Envision multilabel plate reader, and the corresponding contents were calculated by curve calibration.

Compound | IC50 [1] | bioactivity in a panel of biological activity assays, including anti-inflammatory activity [3] | anti-acetylcholinesterase activity IC50 [1] | other results
COC(C)(C)C(O)CCC(C)=CCOc1c2ccoc2cc2oc(=O)ccc12 (stereo not shown) [6′-hydroxy-7′-methoxybergamottin] | 13.2 µM | – | – | –
CCCCC[C@@H]1Cc2cc(O)c(C(=O)O)c(O)c2[C@@H](c2[nH]c3ccccc3c2CC(=O)OC)O1 [Compound 1, Penisimplicin A] | – | devoid of any bioactivities | – | IC50 [2]: 6.35 µM
CCCCCC(O)Cc1cc(O)c(C(=O)O)c(O)c1C1CCC2C(=O)NC(CC(C)C)C(=O)N21 (stereo not shown) [Compound 2, Penisimplicin B] | – | devoid of any bioactivities | – | –
C=C1CCC[C@@]2(C)C[C@@]3([C@@]45C[C@]6(C)CCCC(=C)[C@H]6CC4=C(C)C(=O)O5)OC(=O)C(C)=C3C[C@H]12 [biatractylolide] | – | – | 6.5458 µg/mL | –
COC1=CC(=O)c2c(O)c3c(c(-c4c(OC)cc5c(c4O)C(=O)c4c(O)cc(C)cc4C5=O)c2C1=O)C[C@@H](C)O[C@H]3C [floribundiquinone B] | – | – | 5.95 µg/mL | –
CC(C)=CCOc1c2ccoc2cc2oc(=O)ccc12 [isoimperatorin] | 23.1 µM | – | – | –
